Reference: patent publication US8802235B2, “Drug and imaging agent delivery compositions and methods” (priority 2012, dated 2014)
Where two headings read alike, the source gives them in different places.

How the values were obtained:
B16F10 cells = assay: cells; format: cell-based, murine; settings: for IC50: read-out: IC50s B16F10
Description: (§1) B16F10 (lymphatically metastatic murine melanoma), MDA-MB-231 (human breast cancer), and HUVEC (normal human endothelial) cell lines, were maintained in Dulbecco's modified Eagle's medium (DMEM) supplemented with 1% L-Glutamine and 10% bovine growth serum in 5% CO2 atmosphere. The HER2-expressing murine breast cancer cell line, 4T1.2 Neu was maintained in DMEM supplemented with 1% L-Glutamine, 10% bovine growth serum, and 500 μg/mL of G418 (geneticin) in 5% CO2 atmosphere. The lymphatically metastatic human melanoma cell line, A2058 was maintained in low sodium bicarbonate (1.5 g/L) containing DMEM supplemented with 1% L-Glutamine, 10% bovine growth serum in 5% CO2 atmosphere.
(§2) Prior to cell growth inhibition studies, cells were trypsinized and seeded at 3000 cells/well into 96-well tissue culture plates. After 24 hours, geldanamycin, 17-DMAG, 17-AAG, 17-HEAG, Star-GA (GA basis), or melphalan hydrochloride dilutions in 1×PBS (Fisher BioReagents, pH 7.4) with up to 3% DMSO (final well concentration, for the highest drug concentration) were added to the B16F10, A2058, HUVEC, 4T1.2 Neu, or MDA-MB-231 cells (n=8 or 12, 10 μL/well, 8 or 6 concentrations 10^−10 to 10^−3 M, respectively). Solutions of 10% trichloracetic acid was used as a negative control, media was used as a positive control, and 3% DMSO was used as an additional control (n=8 or 12, 10 μL/well). At 72 h post addition, 10 μL of resazurin blue in PBS was added (5 μM final concentration) to each well. After 3 hours, well fluorescence was measured (λex/λem=560/590 nm) (SpectraMax Gemini, Molecular Devices). IC50s were determined using the nonlinear regression curve fit of a one-site competition (GraphPad Prism 10).

A2058 cells = assay: In vitro cytotoxicity (resazurin blue), A2058; format: cell-based, human; settings: read-out: IC50s A2058
Description: as §1, §2

HUVEC cells = assay: In vitro cytotoxicity (resazurin blue), HUVEC; format: cell-based, human
Description: as §1, §2

4T1.2 Neu cells = assay: In vitro cytotoxicity (resazurin blue), 4T1.2 Neu; format: cell-based, murine; settings: 72 h, Star-GA on GA basis, read-out: IC50s 4T1.2 Neu
Description: as §1, §2

MDA-MB-231 cells = assay: In vitro cytotoxicity (resazurin blue), MDA-MB-231; format: cell-based, human; settings: 72 h, Star-GA on GA basis, read-out: IC50s MDA-MB-231
Description: as §1
Prior to cell growth inhibition studies, cells were trypsinized and seeded at 3000 cells/well into 96-well tissue culture plates. […] After 3 hours, well fluorescence was measured (λex/λem=560/590 nm) (SpectraMax Gemini, Molecular Devices). IC50s were determined using the nonlinear regression curve fit of a one-site competition (GraphPad Prism 10).

B16F10 tumors = format: in vivo; settings: for B16F10 tumor response: melphalan i.v. 5 mg/kg, 17-DMAG i.v. 15 mg/kg, Star-GA s.c. 15 mg/kg DMAG equivalent, polymer s.c. equivalent dose, vs non-treated
Description: . The tumors were measured and recorded, the volumes were calculated using the equation: Tumor Volume (mm^3)=0.52×(width)^2×length. When the B16F10 tumors reached 200-350 mm^3 (ca. Days 6-9), mice were randomly divided into five treatment groups: melphalan (i.v., n=5), 17-DMAG (i.v., n=4), star polymer (s.c., n=6), Star-GA (s.c., n=7), or no treatment (n=4) (FIG. 30).
Mice in the melphalan treatment group were injected once with melphalan (5 mg/kg) intravenously via the tail veil under isoflurane anesthesia. The formulation used to treat mice bearing B16F10 tumors was modified slightly from the product insert for ALKERAN (melphalan hydrochloride) for injections into humans. Melphalan was dissolved in concentrated hydrochloric acid (35-38%) to give a 15 mg/mL solution. The melphalan solution was then aliquoted into vials to give 0.75 mg melphalan/vial, and was dried using a speedvac concentrator (Labconoco) for 1.5 hours at 35° C. followed by 1 hour at ambient temperature. The vials containing dry melphalan hydrochloride were sealed and placed at −20° C. until further use. The reconstituted solution was prepared by first pre-sterilizing propylene glycol, 95% ethanol, and 0.02 g/mL sodium citrate solution, using a sterile syringe fitted with a 0.22 μm sterile filter (Millex GP PES membrane sterile filter, Millipore) into a sterile falcon tube. Then the reconstituted solution was prepared by combining 6 mL sterile propylene glycol, 0.52 mL sterile ethanol (95%), and 3.48 mL sodium citrate solution, and the solution was mixed well and filtered a second time with at 0.22 μm sterile filter. Immediately prior to injection, the 150 μL of the sterile reconstituted solution was rapidly added to the melphalan hydrochloride, the vial was immediately shaken vigorously until dissolved, followed by the rapid addition of 150 μL of sterile saline yielding a 2.5 mg/mL melphalan solution. The melphalan was dosed within 10 to 15 minutes after reconstitution to minimize degradation.
17-DMAG was dissolved in sterile DMSO and administered i.v. via the tail vein at a dose of 15 mg/kg (MTD). […]

4T1.2 Neu tumors = assay: Anticancer efficacy in 4T1.2 Neu tumor bearing mice; format: in vivo; settings: 17-DMAG i.v. 10 mg/kg, Star-GA s.c. 45 mg/kg
Description: During cell preparation of the 4T1.2 Neu cells for implantation, G418 free media was used. Prior to tumor implantation, the hair surrounding the right upper portion of the mouse's chest was removed with depilatory cream. […].
Seven week old (18-22 g) female Balb/c mice purchased from Jackson Laboratory (Bar Harbor, Me.) were used in this study. On Day 7, when tumors reached 100-250 mm^3, mice were randomly divided into four treatment groups, consisting of no treatment (n=7), 60% […] (n=5), 17-DMAG (n=7), and Star-GA (n=8). The 17-DMAG was dosed at 10 mg/kg i.v. as a 1:1 sterile DMSO:PBS solution. Star-GA was dosed at 45 mg/kg (17-HEAG basis, 15% loading, 300 mg/kg Star-GA conjugate), in sterile 35% DMSO and 65% PBS, which was divided into two peritumoral injections on either side of the mammary tumor. Finally, the 60% […] was dosed at an equivalent star polymer concentration used for the 45 mg/kg Star-GA (255 mg/kg 60% […]), which was divided into two peritumoral injections onto either side of the mammary tumor. Tumor volumes were monitored and reported every two days (FIG. 33).
To minimize the occurrence of necrotic tails upon dosing 17-DMAG, as observed in the B16F10 in vivo study described in the previous section, 17-DMAG was dosed at 10 mg/kg i.v. in a 1:1 sterile DMSO:PBS solution rather than 15 mg/kg in 100% DMSO.

[1] = 17-DMAG i.v.; cited from earlier work
[2] = Metastatic analysis of axillary lymph nodes by nodal volume and rtPCR; settings: one mouse
Description: The metastatic state of the 4T1.2 Neu tumor model post treatment was assessed by axillary lymph node volume and the nodal HER 2 expression.
The total RNAs from the frozen lymph node samples were extracted using TriZol reagent (Invitrogen). The first-strand cDNA was synthesized using the Omniscript-RT Kit (QIAGEN, Valencia, Calif.). Primers for the Erbb2 (HER2 RT^2 qpCR primer assay, proprietary primer sequence, QIAGEN) and 18S housekeeping gene (forward: 5′-[sequence]-3′ reverse: 5′-[sequence]-3′) (IDT Inc, Coralville, Iowa) were used. The real-time PCR, in a reaction volume of 25 μL, was performed using the SYBR Green Supermix kit with the Bio-Rad iQ5 system (Hercules, Calif.).
During the lymph node harvesting, gross visualization of the organs was made to identify any obvious signs of metastases, growths, or toxicities associated with any of the treatments.

MDA-1986 cells [3] = assay: Cell growth inhibition (resazurin blue), MDA-1986; format: cell-based, human; settings: 72 hours
Description: (§3) Cell growth inhibition was determined in 96-well plates (3,000 cells/well in 100 μL, 12 replicates/sample) using highly invasive human breast cancer cells, MDA-MB-231, non-metastatic human breast cancer cells, MDA-MB-468, and highly invasive human head and neck squamous cell cancer cells positive for epithelia growth factor receptor, MDA-1986. Drug or conjugate solutions were applied after 24 hours, and 72 hours post-addition, resazurin blue in 10 μL of PBS was applied to each well (final concentration 5 μM).

MDA-MB-468 cells = assay: Cell growth inhibition (resazurin blue), MDA-MB-468; format: cell-based, human; settings: 72 hours
Description: as §3

[4] = system: MDA-1986 human head and neck squamous cell carcinoma; assay: Head and neck tumor model, efficacy of sugar-NO1; format: in vivo, female nude mice
MDA-1986 cells [5] = assay: Nitric oxide release (Griess) in cell culture with MDA-1986 cells; format: cell-based, human
Description: The fluorescence intensity was measured between 520 and 550 nm using a fluorescence microplate reader.
The concentration of nitrite, the stable breakdown product of gaseous nitric oxide, was measured using Griess assay as an indirect measurement of nitric oxide concentration in cell culture media. The assay is based on the reaction between sulfanilamide, N-1-napthyethylenediamine dihydrochloride and nitrite, under acidic conditions to produce a […] azo compound.

[6] = cited from earlier work
[7] = 72 h; Star-GA on GA basis; read-out: IC50s HUVEC

Compound: C=CCNC1=C2C[C@@H](C)C[C@H](OC)[C@H](O)[C@@H](C)/C=C(\C)[C@H](OC(N)=O)[C@@H](OC)/C=C\C=C(/C)C(=O)NC(=CC1=O)C2=O [17-AAG, 17-allylamino-17-demethoxygeldanamycin]
- IC50 (B16F10 cells; 72 h, Star-GA on GA basis): 825 nM
- IC50 (A2058 cells; 72 h, Star-GA on GA basis): 53 nM
- IC50 (HUVEC cells; [7]): 64000 nM
- IC50 (4T1.2 Neu cells): 315 nM

Compound: CO[C@H]1/C=C\C=C(/C)C(=O)NC2=CC(=O)C(NCCN(C)C)=C(C[C@@H](C)C[C@H](OC)[C@H](O)[C@@H](C)/C=C(\C)[C@@H]1OC(N)=O)C2=O [17-DMAG, 17-dimethylaminoethylamino-17-demethoxygeldanamycin]
- IC50 (B16F10 cells; 72 h, Star-GA on GA basis): 250 nM
- increase in in vitro toxicity in comparison to melphalan (B16F10 cells; B16F10 cell line): 400 fold
- IC50 (A2058 cells; 72 h, Star-GA on GA basis): 44 nM
- IC50 (HUVEC cells; [7]): 29000 nM
- IC50 (4T1.2 Neu cells): 296 nM
- IC50 (MDA-MB-231 cells): 189 nM
- physical signs of toxicities (B16F10 tumors; B16F10 study doses): signs of tail necrosis
- B16F10 tumor response (B16F10 tumors): did not exhibit statistically significant tumor growth inhibition
- survival (4T1.2 Neu tumors): neither 17-DMAG nor star-GA treatments exhibited an increase in survival
- 4T1.2 Neu tumor response compared to non-treated mice (4T1.2 Neu tumors; polymer 255 mg/kg): no statistical significances
- MTD [1]: 15 mg/kg
- gross visualization of the organs [2]: appeared to have liver metastases

Compound: CCOC(=O)N1CCN(/[N+]([O-])=N/Oc2ccc([N+](=O)[O-])cc2[N+](=O)[O-])CC1 [JS-K, O^2-(2,4-Dinitrophenyl) 1-[(4-ethoxycarbonyl)piperazin-1-yl]diazen-1ium-1,2-diolate]
- IC50 (MDA-1986 cells [3]): 16000 ± 2000 nM
- IC50 (MDA-MB-468 cells): 42000 ± 4000 nM
- disease condition (modified RECIST), animal No. 1 ([4]; 10 mg/kg on NO prodrug basis): PD (PD = Progressive Disease (>30% tumor growth))
- disease condition (modified RECIST), animal No. 2 ([4]; 10 mg/kg on NO prodrug basis): Necrosis
- disease condition (modified RECIST), animal No. 3 ([4]; 10 mg/kg on NO prodrug basis): PD (PD = Progressive Disease (>30% tumor growth))
- disease condition (modified RECIST), animal No. 4 ([4]; 10 mg/kg on NO prodrug basis): PD (PD = Progressive Disease (>30% tumor growth))
- disease condition (modified RECIST), animal No. 5 ([4]; 10 mg/kg on NO prodrug basis): Necrosis
- disease condition (modified RECIST), animal No. 6 ([4]; 10 mg/kg on NO prodrug basis): PD (PD = Progressive Disease (>30% tumor growth))
- tumor size ([4]; JS-K i.v. six weeks after tumor cell implantation, sugar-NO1 s.c. same time frame, 10 mg/kg): approximately 1000 mm^3
- animals euthanized ([4]; within 7 weeks, tumor size exceeding 1000 mm^3 or necrosis of injection site on the tail): 100%

Compound: CC1CN([N+]([O-])=NOc2ccc([N+](=O)[O-])cc2[N+](=O)[O-])CCN1CCO (stereo not drawn) [NO2, O^2-(2,4-Dinitrophenyl) 1-[[4-(2-hydroxy)ethyl]-3-methylpiperazin-1-yl]diazen-1-ium-1,2-diolate]
- IC50 (MDA-1986 cells [3]): 57000 ± 6000 nM
- IC50 (MDA-MB-468 cells): 27000 ± 3000 nM
- Release half-life (MDA-1986 cells [5]): 9.0 h

Compound: COC1=C2C[C@@H](C)C[C@H](OC)[C@H](O)[C@@H](C)/C=C(\C)[C@H](OC(N)=O)[C@@H](OC)/C=C\C=C(/C)C(=O)NC(=CC1=O)C2=O [geldanamycin]
- IC50 (B16F10 cells; Mus musculus, B16-F10, 72 h, Star-GA on GA basis): 36 nM
- IC50 (A2058 cells; Homo sapiens, A2058, 72 h, Star-GA on GA basis): 44 nM
- IC50 (HUVEC cells; Homo sapiens, HUVEC, 72 h; read-out: IC50s HUVEC): 440 nM
- IC50 (4T1.2 Neu cells; Mus musculus, 4T1.2): 260 nM
- IC50 (MDA-MB-231 cells; Homo sapiens, MDA-MB-231): 963 nM

Compound: N[C@@H](Cc1ccc(N(CCCl)CCCl)cc1)C(=O)O [melphalan]
- IC50 (B16F10 cells; Mus musculus, B16-F10, 72 h): 103000 nM
- IC50 (A2058 cells; Homo sapiens, A2058, 72 h): 30000 nM
- IC50 (HUVEC cells; Homo sapiens, HUVEC, 72 h, read-out: IC50s HUVEC): 209000 nM
- B16F10 tumor response (B16F10 tumors): complete response to treatment

Compound: [N]=O [nitric oxide]
- half-life in vivo [6]: about 5 seconds
